Tests used:
Assay in all cases: relative viability (nuclei count vs DMSO), 5 days (fraction); higher = more cells survive
[1] = compound: COC1=CC=C(C=C1)COC2=C(C=C(C=C2)CC3=CN=C(N=C3N)N)OC [GW-2580] + CCNC(=O)c1noc(-c2cc(C(C)C)c(O)cc2O)c1-c1ccc(CN2CCOCC2)cc1 [Luminespib] (partner 0.01 µM)
Outline: (§1)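 The day after seeding in 1536-well plates, lung cancer cell lines were treated by pin tool with a single drug, or with a fixed anchor-drug dose together with five library-drug doses (not always all listed) in √10 steps. After 5 days, a combined fix-and-stain solution (final 0.05% Triton X-100, 1% formaldehyde, 1 ug/ml Hoechst) was added. Nuclei counted on 4× images gave relative viability as treated counts over vehicle counts, reported as the median of duplicate plates.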

[2] = compound: COC1=CC=C(C=C1)COC2=C(C=C(C=C2)CC3=CN=C(N=C3N)N)OC [GW-2580] + CS(=O)(=O)CCNCc1ccc(-c2ccc3ncnc(Nc4ccc(OCc5cccc(F)c5)c(Cl)c4)c3c2)o1 [Lapatinib] (partner 2 µM)
Outline: as §1

[3] = compound: Cc1cnc(Nc2ccc(OCCN3CCCC3)cc2)nc1Nc1cccc(S(=O)(=O)NC(C)(C)C)c1 [Fedratinib] + COc1cccc2cc(-c3nc([C@H]4CC[C@H](C(=O)O)CC4)n4ncnc(N)c34)[nH]c12 [OSI-027] (partner 0.5 µM)
Outline: as §1

[4] = compound: Cc1cnc(Nc2ccc(OCCN3CCCC3)cc2)nc1Nc1cccc(S(=O)(=O)NC(C)(C)C)c1 [Fedratinib] + Cc1cc(Nc2cc(N3CCN(C)CC3)nc(Sc3ccc(NC(=O)C4CC4)cc3)n2)n[nH]1 [Tozasertib] (partner 0.1 µM)
Outline: as §1

[5] = compound: Cc1cnc(Nc2ccc(OCCN3CCCC3)cc2)nc1Nc1cccc(S(=O)(=O)NC(C)(C)C)c1 [Fedratinib] + Cc1nc(NC(=O)N2CCC[C@H]2C(N)=O)sc1-c1ccnc(C(C)(C)C(F)(F)F)c1 [Alpelisib] (partner 2 µM)
Outline: as §1

[6] = compound: Cc1cnc(Nc2ccc(OCCN3CCCC3)cc2)nc1Nc1cccc(S(=O)(=O)NC(C)(C)C)c1 [Fedratinib] + O=C(c1cc(Cc2n[nH]c(=O)c3ccccc23)ccc1F)N1CCN(C(=O)C2CC2)CC1 [Olaparib] (partner 8 µM)
Outline: as §1

| Cell Line | relative viability ([1]; first compound 0.08 µM) | relative viability ([1]; first compound 0.8 µM) | relative viability ([1]; first compound 2.53 µM) | relative viability ([1]; first compound 8 µM) | relative viability ([2]; first compound 0.08 µM) | relative viability ([2]; first compound 0.8 µM) | relative viability ([2]; first compound 2.53 µM) | relative viability ([2]; first compound 8 µM) | relative viability ([3]; first compound 0.1 µM) | relative viability ([3]; first compound 0.3162 µM) | relative viability ([3]; first compound 1 µM) | relative viability ([4]; first compound 0.1 µM) | relative viability ([4]; first compound 0.3162 µM) | relative viability ([4]; first compound 1 µM) | relative viability ([5]; first compound 0.1 µM) | relative viability ([5]; first compound 0.3162 µM) | relative viability ([5]; first compound 1 µM) | relative viability ([6]; first compound 0.1 µM) | relative viability ([6]; first compound 0.3162 µM) | relative viability ([6]; first compound 1 µM) |
| --- | --- | --- | --- | --- | --- | --- | --- | --- | --- | --- | --- | --- | --- | --- | --- | --- | --- | --- | --- | --- |
| NCI-H2087 | 0.133 | 0.179 | 0.174 | 0.164 | 1.43 | 1.18 | 1.04 | 0.991 | 0.486 | 0.453 | 0.425 | 0.205 | 0.206 | 0.179 | 1.03 | 1.05 | 0.963 | 0.534 | 0.49 | 0.425 |
| NCI-H2126 | 0.96 | 1 | 0.907 | 0.825 | 0.767 | 0.835 | 0.679 | 0.833 | 0.757 | 0.736 | 0.704 | 0.429 | 0.818 | 0.781 | 0.745 | 0.719 | 0.786 | 0.927 | 0.939 | 0.938 |
| NCI-H2170 | 0.827 | 0.572 | 0.851 | 0.594 | 0.26 | 0.258 | 0.261 | 0.274 | 0.688 | 0.723 | 0.596 | 0.481 | 0.743 | 0.599 | 0.835 | 0.809 | 0.654 | 0.63 | 0.581 | 0.562 |
| NCI-H2228 | 0.167 | 0.185 | 0.0943 | 0.183 | 0.893 | 1.28 | 1.38 | 1.02 | 0.62 | 0.507 | 0.482 | 0.188 | 0.221 | 0.227 | 0.59 | 0.842 | 0.747 | 0.648 | 0.631 | 0.495 |
| NCI-H2347 | 0.491 | 0.656 | 0.369 | 0.471 | 1.02 | 1.03 | 0.805 | 0.936 | 0.292 | 0.428 | 0.497 | 0.368 | 0.602 | 0.483 | 1.04 | 1.04 | 1 | 0.551 | 0.58 | 0.596 |
| NCI-H2405 | 0.727 | 0.604 | 0.671 | 0.586 | 1.05 | 1.16 | 1.02 | 0.912 | 0.601 | 0.618 | 0.61 | 0.418 | 0.705 | 0.612 | 0.626 | 0.824 | 0.698 | 0.837 | 0.835 | 0.802 |
| NCI-H3122 | 0.0808 | 0.0609 | 0.0868 | 0.0798 | 1.01 | 1.02 | 0.999 | 1.04 | 0.911 | 0.918 | 0.854 | 0.259 | 0.362 | 0.299 | 0.833 | 0.682 | 0.7 | 0.739 | 0.632 | 0.608 |
| PC-3 [JPC-3] | 0.719 | 0.774 | 0.544 | 0.705 | 0.458 | 0.462 | 0.358 | 0.446 | 0.776 | 0.801 | 0.764 | 0.833 | 0.894 | 0.864 | 0.985 | 1.01 | 1.09 | 1.01 | 1.09 | 1.01 |
| PC-14 | 0.144 | 0.129 | 0.175 | 0.131 | 0.379 | 0.35 | 0.307 | 0.268 | 0.746 | 0.88 | 0.633 | 0.436 | 0.59 | 0.583 | 0.915 | 0.961 | 0.916 | 0.371 | 0.324 | 0.309 |
| RERF-LC-KJ | 1.23 | 1.56 | 1.35 | 1.14 | 0.895 | 0.909 | 0.736 | 0.884 | 0.533 | 0.602 | 0.48 | 0.292 | 0.38 | 0.347 | 0.792 | 0.86 | 0.756 | 0.895 | 0.847 | 0.805 |
| SK-LU-1 | 0.206 | 0.183 | 0.212 | 0.206 | 0.962 | 1.14 | 0.829 | 0.979 | 0.307 | 0.35 | 0.289 | 0.27 | 0.298 | 0.261 | – | 0.93 | 0.701 | 0.407 | 0.361 | 0.341 |
| SK-MES-1 | 0.869 | 0.989 | 0.701 | 0.83 | 0.47 | 0.496 | 0.392 | 0.474 | 0.544 | 0.6 | 0.436 | 0.375 | 0.857 | 0.737 | 0.909 | 0.829 | 0.809 | 0.806 | 0.654 | 0.479 |
| SW 1573 | 0.257 | 0.213 | 0.24 | 0.217 | 0.979 | 1.11 | 1.18 | 0.856 | 0.564 | 0.635 | 0.394 | 0.148 | 0.21 | 0.14 | 0.813 | 0.867 | 0.703 | 0.539 | 0.502 | 0.474 |

Reference: the supplement of paper PMC10307832
